Test results from US11667651B2, “Aminopyridine derivatives as phosphatidylinositol phosphate kinase inhibitors” (HiberCell, Inc., priority 2017, dated 2023).

Key:
PIP4K2A = molecular target: T1, PIP4K2A (Homo sapiens, UniProt P48426); experiment: Kinase Assay PIP4K2 A (Table 2); type: biochemical; design: 4 nM PIP4K2A (full length protein, SignalChem); purchased SignalChem; settings: compounds listed under IC50 bins
T1 sequence (P48426 1-406): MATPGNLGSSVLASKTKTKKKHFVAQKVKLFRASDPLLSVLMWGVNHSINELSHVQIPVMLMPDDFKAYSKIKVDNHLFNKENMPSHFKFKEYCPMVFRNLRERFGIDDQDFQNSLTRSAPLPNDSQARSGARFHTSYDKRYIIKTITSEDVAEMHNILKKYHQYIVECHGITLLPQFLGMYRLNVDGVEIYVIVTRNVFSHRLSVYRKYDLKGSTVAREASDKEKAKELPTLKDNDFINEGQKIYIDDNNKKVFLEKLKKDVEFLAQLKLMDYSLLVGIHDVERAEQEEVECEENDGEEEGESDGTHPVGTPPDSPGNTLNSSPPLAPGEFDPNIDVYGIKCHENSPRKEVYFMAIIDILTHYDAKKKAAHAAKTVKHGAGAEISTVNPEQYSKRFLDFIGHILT
Method: Dilution series of the compounds were prepared in DMSO at 100 times the final assay concentration (n1=n0/3 in 10 points). The compounds were further diluted to three times the assay concentration in assay buffer (20 mM MOPS pH 7.2, 25 mM magnesium chloride, 0.005% Tween 20). 6 μL of the diluted compounds were added to a 384 well assay plate followed by 9 μL of a mix consisting of 4 nM PIP4K2A (full length protein, SignalChem) and 100 μM PI(5)P diC8 (Tebu-Bio). Enzyme and compounds were pre-incubated at room temperature for 15 minutes.
Then 3 μL of a solution containing 60 μM ATP (Promega) in assay buffer was added to the wells containing compound and enzyme and mixing was performed by pipetting several times. The reaction was incubated at room temperature for 1 h. Then 18 μL of ADP-Glo™ Reagent (Promega) was added to stop the kinase reaction and deplete the unconsumed ATP, mixing was performed by pipetting several times. The plate was incubated at room temperature for 40 minutes before addition of 36 μL of Kinase Detection Reagent (Promega) to convert ADP to ATP and introduce luciferase and luciferin to detect ATP. The reaction was incubated at room temperature for 40 minutes before the luminescence was measured in a in a Victor 3V 1420 multilabel counter (Perkin Elmer).
Percent inhibition of the compounds as compared to dimethyl sulfoxide treated control samples was calculated. Compound concentration versus percent inhibition were fitted to generate IC50 values.

PIP4K2B = molecular target: T2, PIP4K2B (Homo sapiens, UniProt P78356); experiment: Trans-FI P kinase assay PIP4K2B (Table 4); type: biochemical; settings: compounds listed under IC50 bins; read-out: Trans-FI P kinase assays: PIP4K2B IC50
T2 construct: made in house; host or cells: E. coli
T2 sequence (P78356 1-416): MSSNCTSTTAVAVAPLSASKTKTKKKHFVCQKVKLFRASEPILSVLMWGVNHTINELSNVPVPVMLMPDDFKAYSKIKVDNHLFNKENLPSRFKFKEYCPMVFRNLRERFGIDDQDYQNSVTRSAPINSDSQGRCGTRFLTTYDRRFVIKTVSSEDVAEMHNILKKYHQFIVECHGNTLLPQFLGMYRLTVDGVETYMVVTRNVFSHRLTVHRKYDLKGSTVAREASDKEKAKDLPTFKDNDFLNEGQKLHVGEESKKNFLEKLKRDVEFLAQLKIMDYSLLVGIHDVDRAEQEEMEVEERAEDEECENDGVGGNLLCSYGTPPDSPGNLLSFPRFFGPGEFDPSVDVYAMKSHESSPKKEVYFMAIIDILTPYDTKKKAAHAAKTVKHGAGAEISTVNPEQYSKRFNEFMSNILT
From the text: GST tagged PIP4KtypeIIA and B enzymes were overexpressed in E. Coli and purified to >80% homogeneity. Phosphatidyl inositol-5-phosphate (PI5P, Cat. #850152, Avanti Polar Lipids Inc.) was used as the lipid substrate and phosphatidyl ethanolamine (DOPE 18:1, Cat. #850725, Avanti Polar Lipids Inc.) was used as the carrier lipid for assays. Ultrapure ATP and GTP was purchased from Bellbrooke Labs. ADP Glo reagents were obtained from Promega. Transcreener FI reagent was obtained from Bellbrooke labs.
GST-tagged PIP4KtypeIIB (3.4 μL, 2.77 mg/mL) was diluted to 5 mL using HNE buffer to yield 5× enzyme stock (25 nM)
Lipid Preparation: In a 10 mL pyrex glass vial, […] were suspended in 2.5 mL of HEPES buffer mix and 2.5 mL of H:E buffer. The contents were mixed and sonicated for 3 min to yield a translucent lipid stock.
Compound Preparation: Compounds were stored as 5 mM stocks in neat DMSO as room temperature in glass vials. 5 mM stocks were diluted to 2 mM and then serially diluted (3×) in neat DMSO in 96 well polypropylene plates. From the serially diluted stocks, 3 μL was delivered into 250 μL of 25% DMSO (in water) to generate 5× compound stocks. Typically, the highest compound conc. was 24 μM.
The assay volume was kept at 25 μL. To each well of the reaction plate, 10 μL of lipid stock (1:1 ratio PI5P:DOPE) was delivered. This was followed by the addition of 5 μL of compound in 25% DMSO. Then, to each well, 5 μL of 25 nM (5×) typeIIB enzyme was delivered. The contents were mixed well and incubated for 1 h at 27° C. After 1 h, reaction was initiated by adding 5 μL of 500 μM GTP and the contents were mixed well with a multi-channel pipetteman. The final concentration of the reagents are as follows: 50 mM HEPES, pH 7.3, 10 mM MgCl2, 20 mM NaCl, 0.01% v/v triton-X100, 5% DMSO, 100 μM GTP, 80 μM (2 μg) PI5P, 2 μg DOPE, and 5 nM PIP4KIIB Typically, the highest conc. of compounds was 4.8 μM and the lowest conc. was 0.
After 2 h, the reaction was quenched by adding 25 μL of transcreener FI reagent. The contents were incubated at rt for 1 h and the Fluorescence (Ex: 584 Em: 623) was read using Molecular Devices Paradigm plate reader. […] The blanks were averaged and subtracted from all other wells. Using a calibration curve, RFU was converted to μM GDP (product). IC50 was calculated by plotting the residual activity (expressed as % No inhibitor control) vs. log [Inh. conc.]

SMILES	IC50 (PIP4K2A) [nM]	IC50 (PIP4K2B) [nM]
Cn1cnnc1N1CC=C(c2ccc(Nc3cnc4c(c3)N3C(=O)CC[C@H]3CO4)nc2)CC1 [Example 274, (S)-2-((1′-(4-methyl-4H-1,2,4-triazol-3-yl)-1′,2′,3′,6′-tetrahydro-[3,4′-bipyridin]-6-yl)amino)-6,6a,7,8-tetrahydro-9H-pyrido[2,3-b]pyrrolo[1,2-d][1,4]oxazin-9-one]	100 to 1000	10 to 100
CN(C)C(=O)c1ccc(-c2ccc(Nc3cnc4c(c3)N(C(=O)C3CC3)CCO4)nc2)cc1 [Example 90, 4-(6-((1-(cyclopropanecarbonyl)-2,3-dihydro-1H-pyrido[2,3-b][1,4]oxazin-7-yl)amino)pyridin-3-yl)-N,N-dimethylbenzamide]	1 to 10	10 to 100
Cn1cnnc1-c1ccc(-c2ccc(Nc3cnc4c(c3)N3C(=O)CC[C@H]3CO4)nc2)cc1 [Example 291, (S)-2-((5-(4-(4-methyl-4H-1,2,4-triazol-3-yl)phenyl)pyridin-2-yl)amino)-6,6a,7,8-tetrahydro-9H-pyrido[2,3-b]pyrrolo[1,2-d][1,4]oxazin-9-one]	10 to 100	10 to 100
CC(C)Cn1cnnc1-c1ccc(-c2ccc(Nc3cnc4c(c3)N3C(=O)CC[C@H]3CO4)nc2)cc1 [Example 297, (S)-2-((5-(4-(4-isobutyl-4H-1,2,4-triazol-3-yl)phenyl)pyridin-2-yl)amino)-6,6a,7,8-tetrahydro-9H-pyrido[2,3-b]pyrrolo[1,2-d][1,4]oxazin-9-one]	10 to 100	10 to 100
COc1nc(Nc2cnc3c(c2)N2C(=O)CC[C@H]2CO3)ncc1-c1ccc(C(=O)N(C)C)cc1 [Example 294, (S)-4-(4-methoxy-2-((9-oxo-6a,7,8,9-tetrahydro-6H-pyrido[2,3-b]pyrrolo[1,2-d][1,4]oxazin-2-yl)amino)pyrimidin-5-yl)-N,N-dimethylbenzamide]	1 to 10	1 to 10
Cn1cnnc1N1CCN(c2ccc(Nc3cnc4c(c3)N3C(=O)CC[C@H]3CO4)nc2)CC1 [Example 275, (S)-2-((5-(4-(4-methyl-4H-1,2,4-triazol-3-yl)piperazin-1-yl)pyridin-2-yl)amino)-6,6a,7,8-tetrahydro-9H-pyrido[2,3-b]pyrrolo[1,2-d][1,4]oxazin-9-one]	100 to 1000	10 to 100
O=C(COc1cccc2c1C(=O)N(C1CCC(=O)NC1=O)C2=O)NCCCC(=O)Nc1ccc(C(=O)Nc2cncc(Nc3ccc(-c4ccc(N5CCCC5=O)cc4)cn3)c2)cc1 (stereo not shown) [Example 292, 4-(4-(2-((2-(2,6-dioxopiperidin-3-yl)-1,3-dioxoisoindolin-4-yl)oxy)acetamido)butanamido)-N-(5-((5-(4-(2-oxopyrrolidin-1-yl)phenyl)pyridin-2-yl)amino)pyridin-3-yl)benzamide]	100 to 1000	10 to 100
Cn1cnnc1-c1ccc(-c2cnc(Nc3cnc4c(c3)N3C(=O)CC[C@H]3CO4)cc2C2CC2)cc1 [Example 285, (S)-2-((4-cyclopropyl-5-(4-(4-methyl-4H-1,2,4-triazol-3-yl)phenyl)pyridin-2-yl)amino)-6,6a,7,8-tetrahydro-9H-pyrido[2,3-b]pyrrolo[1,2-d][1,4]oxazin-9-one]	10 to 100	10 to 100
O=C1CCCN1c1ccc(-c2cnc(Nc3cnc4c(c3)N3C(=O)CC[C@H]3CO4)nc2N2CCOCC2)cc1 [Example 280, (S)-2-((4-morpholino-5-(4-(2-oxopyrrolidin-1-yl)phenyl)pyrimidin-2-yl)amino)-6,6a,7,8-tetrahydro-9H-pyrido[2,3-b]pyrrolo[1,2-d][1,4]oxazin-9-one]	≤ 1	1 to 10
CC(O)C(=O)N1CCOc2ncc(Nc3ccc(-c4ccc(C(=O)N(C)C)cc4)cn3)cc21 (stereo not shown) [Example 92, 4-(6-((1-(2-hydroxypropanoyl)-2,3-dihydro-1H-pyrido[2,3-b][1,4]oxazin-7-yl)amino)pyridin-3-yl)-N,N-dimethylbenzamide]	1 to 10	10 to 100
Cc1cnnn1-c1ccc(-c2ccc(Nc3cnc4c(c3)N3C(=O)CC[C@H]3CO4)nc2)cc1 [Example 289, (S)-2-((5-(4-(5-methyl-1H-1,2,3-triazol-1-yl)phenyl)pyridin-2-yl)amino)-6,6a,7,8-tetrahydro-9H-pyrido[2,3-b]pyrrolo[1,2-d][1,4]oxazin-9-one]	1 to 10	1 to 10
CN(C)C(=O)c1cc(F)c(-c2ccc(Nc3cncc(N4CCCC4=O)c3)nc2)cc1F [Example 14, 2,5-difluoro-N,N-dimethyl-4-(6-((5-(2-oxopyrrolidin-1-yl)pyridin-3-yl)amino)pyridin-3-yl)benzamide]	100 to 1000	–
CC(=O)Nc1ccc(-c2ccc(C(=O)N(C)C)cc2)cn1 [Example 220, 4-(6-acetamidopyridin-3-yl)-N,N-dimethylbenzamide]	> 1000	–
CC(=O)N1CCOc2ncc(Nc3ccc(-c4ccc(C(=O)N(C)C)cc4)cn3)cc21 [Example 43, 4-(6-((1-acetyl-2,3-dihydro-1H-pyrido[2,3-b][1,4]oxazin-7-yl)amino)pyridin-3-yl)-N,N-dimethylbenzamide]	1 to 10	–
CN(C)C(=O)c1ccc(-c2ccc(Nc3cncc(N(C4CC4)S(C)(=O)=O)c3)nc2)cc1 [Example 28, 4-(6-((5-(N-cyclopropylmethylsulfonamido)pyridin-3-yl)amino)pyridin-3-yl)-N,N-dimethylbenzamide]	10 to 100	–
CN(C)C(=O)c1ccc(-c2ccc(Nc3cncc(N4CCOCC4=O)c3)nc2)cc1 [Example 47, N,N-dimethyl-4-(6-((5-(3-oxomorpholino)pyridin-3-yl)amino)pyridin-3-yl)benzamide]	100 to 1000	–
CN(C)C(=O)Cc1cncc(Nc2ccc(-c3ccc(C(=O)N(C)C)cc3)cn2)c1 [Example 218, 4-(6-((5-(2-(dimethylamino)-2-oxoethyl)pyridin-3-yl)amino)pyridin-3-yl)-N,N-dimethylbenzamide]	100 to 1000	–
